One data set is described as follows: in vitro. Particulars: rabbit, prk cells.
The next data set has as its system vaccinia virus. Put plainly: microbe, parasite or virus in culture. Format: cell-based. The following applies: Orthopoxvirus vaccinia, 72 h.
Data set [1] in a line: Antimetabolic activity: inhibition of (methyl-^3 H)TdR incorporation into DNA of PRK cells (Test 3a). Format: cell-based. The following applies: rabbit. As to the method:
(§1) (a) In a first experiment, the incorporation of certain radiolabelled DNA precursors into DNA of the cells, and the effect of 5-(2-bromovinyl)-2'-deoxyuridine and related compounds thereon, was tested. The technique has been described by De Clercq et al in Biochemical Pharmacology, 26, 794-797 (1977) and by De Clercq et al in Molecular Pharmacology, in press, 1978, which are incorporated herein by way of reference.
(§2) The DNA precursors as used were (methyl-^3 H) (2'-deoxythymidine) (TdR), and (2-^14 C) (2'-deoxyuridine) (UdR).
(§3) Incorporation of the radiolabelled precursor was then measured as described and the ID50 was determined.

Data set [2] can be described thus: Antimetabolic activity: inhibition of (2-^14 C)UdR incorporation into DNA of PRK cells (Test 3a). The format is cell-based. The following applies: rabbit. As for the experimental part:
as §1, §2, §3

In data set [3] the test system is herpes simplex-1 (strain KOS) virus. Put plainly: microbe, parasite or virus in culture. The format is cell-based, herpes simplex-1 virus (strain KOS). Particulars: for IC50: 72 h, 100 CCID50, CPE, generally 3 days, average of three experiments; for selectivity of antiviral activity (in words): herpes simplex virus.
Another data set deals with herpes simplex-1. In words: Antiviral index in PRK cell cultures: antimetabolic ID50 divided by antiviral ID50 (Test 4). The format is cell-based, herpes simplex-1 virus. Particulars: for Antiviral index: PRK cells, ID50 cell number / ID50 CPE of herpes simplex-1; for antiviral index (in words): against herpes simplex virus. As for the experimental part:
Finally, the antiviral index of 5-(2-bromovinyl)-2'-deoxyuridine and its related compounds in PRK cell cultures was determined as a result of the measurements made in the foregoing tests.
The antiviral index was calculated by dividing the "antimetabolic" ID50 by the "antiviral" ID50. The "antimetabolic" ID50 corresponded to the dose required to reduce the cell number by 50% whereas the "antiviral" ID50 corresponded to the dose required to inhibit the cytopathic effect of herpes simplex-1 by 50%.

The conditions of data set [4]: state of the art; cited from earlier work.
The subject of data set [5] is DNA viruses such as vaccinia and herpes simplex. The following applies: state of the art; cited from earlier work.
Data set [6] concerns cell culture.
In data set [7] the test system is cell culture. Put plainly: Toxicity in cell culture (summary statement).
Data set [8] in a line: Antimetabolic activity: reduction of total cell number of PRK cells (Test 3b). The following applies: rabbit.
[9] abbreviates: HSF, read-out: ID50 Vaccinia (HSF).
Where [10] appears, read: PRK, in Oryctolagus cuniculus, read-out: ID50 Vaccinia (PRK).
The mark [11] stands for this setting: human skin fibroblast (HSF) cells, read-out: ID50 Herpes simplex-1 strain KOS (HSF).
Setting [12] is: primary rabbit kidney (PRK) cells, read-out: ID50 Herpes simplex-1 strain KOS (PRK).
The mark [13] stands for this setting: PRK cells, 16 hours, read-out: ID50 (methyl-^3 H)TdR incorporation into DNA.
The mark [14] stands for this setting: PRK cells, 16 hours, read-out: ID50 (2-^14)UdR incorpor. into DNA.

Data on six compounds can be found in patent US4424211A, “2'Deoxy-5-(2-halogenovinyl)-uridines, pharmaceutical compositions and method of use” (Rega Instituut VZW, priority 1981, dated 1984).

In brackets after ≈: the same amount, converted by molar mass. Entries after “also recorded” stand apart in the source; their conditions may differ. Read-outs that look alike come from different tables or passages of the source.

For orientation: CC50 means the concentration at which the toxic effect on the cells reaches its halfway point. Read a high CC50 as better tolerance by the cells. Consider `C=C(Cl)c1cn([C@H]2C[C@H](O)[C@@H](CO)O2)c(=O)[nH]c1=O` [5-(1-chlorovinyl)-2'-deoxyuridine], for which the CC50 at 72 h in “in vitro” was 2 µg/mL (≈ 6.93 µM). Moreover, the IC50 turned out to be 0.7 µg/mL (≈ 2.42 µM) in the data set with vaccinia virus (setting [9]), 0.4 µg/mL (≈ 1.39 µM) in the data set with vaccinia virus (setting [10]), 2 µg/mL (≈ 6.93 µM) in data set [3] (setting [11]) and 0.4 µg/mL (≈ 1.39 µM) in [3] (setting [12]). Besides, the IC50 at 16 h in [1] (prk cells) is 27 µg/mL (≈ 93.5 µM); in data set [2] (prk cells), below 6 µg/mL. For the same compound, the Antiviral index with herpes simplex-1 is listed as 5.

Consider `O=c1[nH]c(=O)n([C@H]2C[C@H](O)[C@@H](CO)O2)cc1I` [2'-deoxy-5-iodouridine], for which half-maximal cytotoxicity in the data set “in vitro” (CC50 at 72 h) was put at 6 µg/mL (≈ 16.9 µM). In addition, the “toxicity of known compounds (in words)” value in data set [4] is reported as “cannot be neglected”. Also, the IC50 in the data set with vaccinia virus (setting [9]) was 0.2 µg/mL (≈ 0.565 µM); in the data set with vaccinia virus (setting [10]), 0.2 µg/mL (≈ 0.565 µM); in [3] (setting [11]) it was 0.7 µg/mL (≈ 1.98 µM); in [3] (setting [12]), 0.2 µg/mL (≈ 0.565 µM). In addition, the IC50 at 16 h amounted to 2.5 µg/mL (≈ 7.06 µM) in [1] (prk cells) and 1.2 µg/mL (≈ 3.39 µM) in data set [2] (prk cells). In the data set with herpes simplex-1, this compound had an Antiviral index of 30. In addition, the “antiviral activity/specificity of known compounds (in words)” value in data set [5] is “act equally well against different DNA viruses such as vaccinia and herpes simplex”.

Regarding `O=c1[nH]c(=O)n([C@H]2C[C@H](O)[C@@H](CO)O2)cc1/C=C/I` [E-5-(2-iodovinyl)-2'-deoxyuridine], the values for the IC50 (in the data set with vaccinia virus (setting [10]); in data set [3] (setting [12])) were 10 µg/mL (≈ 26.3 µM) and 0.01 µg/mL (≈ 0.0263 µM), respectively. For the same compound, the “toxicity (in words)” value with cell culture [6] is recorded as “remarkably low”. The “selectivity of antiviral activity (in words)” value in [3] is on record as “specific antiviral activity; also recorded: very selective towards herpes simplex virus”. The “antiviral index (in words)” value with herpes simplex-1 was “high antiviral index”.

Consider `O=c1[nH]c(=O)n([C@H]2C[C@H](O)[C@@H](CO)O2)cc1/C=C/Br` [E-5-(2-bromovinyl)-2'-deoxyuridine], for which the IC50 with vaccinia virus (setting [9]) was found to be 0.7 µg/mL (≈ 2.1 µM); in the data set with vaccinia virus (setting [10]), 7 µg/mL (≈ 21 µM); in data set [3] (setting [11]), 0.007 µg/mL (≈ 0.021 µM); in data set [3] (setting [12]), 0.007 µg/mL (≈ 0.021 µM). Also, the figures for the IC50 at 16 h in [1] (setting [13]) and in data set [2] (setting [14]) were 70 µg/mL (≈ 210 µM) and 35 µg/mL (≈ 105 µM), respectively. In the data set with cell culture [7], the “toxicity (in words)” value is recorded as “remarkably low”. Moreover, the CC50 at 72 h in [8] is above 33 µg/mL. Further, the “selectivity of antiviral activity (in words)” value in data set [3] is on record as “specific antiviral activity; also recorded: very selective towards herpes simplex virus”. For the same compound, the Antiviral index in the data set on herpes simplex-1 is on record as above 5000. For the same compound, the “antiviral index (in words)” value with herpes simplex-1 is given as “remarkably high antiviral index”.

Turning to `C=Cc1cn([C@H]2C[C@H](O)[C@@H](CO)O2)c(=O)[nH]c1=O` [2'-deoxy-5-vinyluridine], the CC50 at 72 h in the data set “in vitro” was 8 µg/mL (≈ 31.5 µM). The “toxicity of known compounds (in words)” value in data set [4] is “cannot be neglected”. For the same compound, the IC50 amounted to 0.1 µg/mL (≈ 0.393 µM) with vaccinia virus (setting [9]), 0.4 µg/mL (≈ 1.57 µM) in the data set with vaccinia virus (setting [10]), 0.07 µg/mL (≈ 0.275 µM) in [3] (setting [11]) and 0.04 µg/mL (≈ 0.157 µM) in data set [3] (setting [12]). The values for the IC50 at 16 h in data set [1] (prk cells) and in data set [2] (prk cells) were 20 µg/mL (≈ 78.7 µM) and 8 µg/mL (≈ 31.5 µM), respectively. This compound also had an Antiviral index in the data set with herpes simplex-1 of 200. Moreover, the “antiviral activity/specificity of known compounds (in words)” value in data set [5] was “act equally well against different DNA viruses such as vaccinia and herpes simplex”.

Regarding `C#Cc1cn([C@H]2C[C@H](O)[C@@H](CO)O2)c(=O)[nH]c1=O` [2'-deoxy-5-ethynyluridine], the IC50 in the data set on vaccinia virus (setting [9]) stood at 0.1 µg/mL (≈ 0.396 µM); in the data set on vaccinia virus (setting [10]), 0.2 µg/mL (≈ 0.793 µM); in data set [3] (setting [11]) it was 0.4 µg/mL (≈ 1.59 µM); in data set [3] (setting [12]), 0.07 µg/mL (≈ 0.278 µM). The IC50 at 16 h in [1] (setting [13]) was 100 µg/mL (≈ 396 µM); in [2] (setting [14]), below 6 µg/mL. This compound also yielded a CC50 at 72 h in data set [8] of 0.3 µg/mL (≈ 1.19 µM). In addition, the Antiviral index in the data set with herpes simplex-1 was determined as 5.
